Experimental findings from ChEMBL document CHEMBL4825694 (Eur J Med Chem, 2021) are described below.

The target of assay [1] is T1, Peroxisome proliferator-activated receptor gamma (Homo sapiens, UniProt P37231).
T1 sequence (P37231 whole entry): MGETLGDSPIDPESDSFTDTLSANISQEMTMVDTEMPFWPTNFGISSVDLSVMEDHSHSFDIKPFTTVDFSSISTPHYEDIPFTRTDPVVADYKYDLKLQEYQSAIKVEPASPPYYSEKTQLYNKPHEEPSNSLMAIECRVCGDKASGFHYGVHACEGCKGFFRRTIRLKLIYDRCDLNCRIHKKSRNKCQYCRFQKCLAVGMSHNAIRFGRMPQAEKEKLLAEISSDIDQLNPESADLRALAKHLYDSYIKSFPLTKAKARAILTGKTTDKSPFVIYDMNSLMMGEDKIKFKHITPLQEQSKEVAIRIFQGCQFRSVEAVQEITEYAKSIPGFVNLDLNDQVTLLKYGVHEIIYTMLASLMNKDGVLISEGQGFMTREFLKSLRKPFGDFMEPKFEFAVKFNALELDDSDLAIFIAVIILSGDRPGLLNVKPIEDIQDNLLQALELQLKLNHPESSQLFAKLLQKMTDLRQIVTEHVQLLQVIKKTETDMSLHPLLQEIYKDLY
Briefly: Partial agonist activity at GAL4 DBD-fused PPARgamma LBD (unknown origin) expressed in pG5 luc and pBIND transfected HEK293T cells assessed as transcriptional activation incubated for 12 hrs by fluorescence based luciferase assay.

Assay [2] deals with T1, Peroxisome proliferator-activated receptor gamma. Briefly: Binding affinity to GAL4-DBD-fused PPARgamma ligand binding domain (unknown origin) expressed in HEK293T cells by spectra-fluorophotometry analysis.
The target in assay [3] is T2, Prostaglandin G/H synthase 2 (Homo sapiens, UniProt P35354).
T2 sequence (P35354 whole entry): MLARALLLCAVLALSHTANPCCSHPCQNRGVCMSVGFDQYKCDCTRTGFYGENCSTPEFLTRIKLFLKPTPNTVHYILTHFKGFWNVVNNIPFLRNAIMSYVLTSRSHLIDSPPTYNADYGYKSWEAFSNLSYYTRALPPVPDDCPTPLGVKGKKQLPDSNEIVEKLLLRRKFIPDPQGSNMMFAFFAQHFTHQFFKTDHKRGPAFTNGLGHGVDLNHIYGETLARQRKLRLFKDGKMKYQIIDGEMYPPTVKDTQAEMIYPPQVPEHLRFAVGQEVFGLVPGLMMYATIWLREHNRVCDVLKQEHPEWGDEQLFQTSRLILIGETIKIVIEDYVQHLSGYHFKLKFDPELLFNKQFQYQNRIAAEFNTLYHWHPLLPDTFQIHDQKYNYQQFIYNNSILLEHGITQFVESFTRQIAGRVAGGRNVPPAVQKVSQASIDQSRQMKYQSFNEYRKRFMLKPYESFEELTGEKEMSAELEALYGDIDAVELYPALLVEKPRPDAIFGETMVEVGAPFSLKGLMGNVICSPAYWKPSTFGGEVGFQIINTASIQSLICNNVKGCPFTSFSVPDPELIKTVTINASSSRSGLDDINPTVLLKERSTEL

Broadly, the EC50 is the concentration giving half of the maximal effect. As usually defined, the Kd is a measure of binding affinity in units of concentration. For `CC1=C(CC(=O)O)c2cc(F)ccc2/C1=C\c1ccc(F)cc1`, the EC50 in assay [1] amounted to 11.7 µM. Further, the Kd in assay [2] turned out to be 6.67 µM.
For `CC1=C(CC(=O)O)c2ccccc2/C1=C/c1cccc(C)c1`, in that order: over 50 µM and over 100 µM.
The term IC50 denotes the concentration that gives 50% inhibition. Higher therefore signals a need for much substance. As for `CC1=C(CC(=O)O)c2cc(F)ccc2/C1=C\c1cccc(OCc2ccccc2)c1`, in assay [3], the IC50 is 286 µM.
As to `COc1cccc(/C=C2/C(C)=C(CC(=O)O)c3cc(F)ccc32)c1`, the EC50 in assay [1] was 5.3 µM. The compound further returned a Kd in assay [2] of 2.46 µM.
For `CC1=C(CC(=O)O)c2cc(F)ccc2/C1=C\c1ccc(Oc2ccccc2)cc1`, in that order: over 50 µM and over 100 µM.
As for `CC1=C(CC(=O)O)c2cc(F)ccc2/C1=C\c1ccc(OCc2ccccc2)cc1`, the EC50 in assay [1] was over 50 µM. For the same compound, the dissociation constant Kd in assay [2] is over 100 µM.
For `CC1=C(CC(=O)O)c2cc(F)ccc2/C1=C\c1ccc([S+](C)[O-])cc1` (configuration not stated), in that order: 22.7 µM and over 100 µM.
For `CC1=C(CC(=O)O)c2ccccc2/C1=C\c1cccc(C)c1`, in that order: over 50 µM and over 100 µM.
As to `CC1=C(CC(=O)O)c2cc(F)ccc2/C1=C\c1ccc(C(C)C)cc1`, in assay [1], the EC50 is over 50 µM. Also, the Kd in assay [2] was over 100 µM.
